Experimental data from PMC11233931, “Remodeling tumor‐associated macrophage for anti‐cancer effects by rational design of irreversible inhibition of mitogen‐activated protein kinase‐activated protein kinase 2” (MedComm, 2024).

What was measured:
Test in all cases: Eurofins kinase selectivity profile against 380 other human recombinant kinases (Table S2)
Format in all cases: biochemical
[1] = target: T1, 380 human recombinant protein kinases (Homo sapiens, UniProt Q9UEE5); conditions: DRAK1(h), read-out: Inhibition rate
T1 construct: purchased Eurofins (Celle Lévescault)
T1 sequence (Q9UEE5 1-414): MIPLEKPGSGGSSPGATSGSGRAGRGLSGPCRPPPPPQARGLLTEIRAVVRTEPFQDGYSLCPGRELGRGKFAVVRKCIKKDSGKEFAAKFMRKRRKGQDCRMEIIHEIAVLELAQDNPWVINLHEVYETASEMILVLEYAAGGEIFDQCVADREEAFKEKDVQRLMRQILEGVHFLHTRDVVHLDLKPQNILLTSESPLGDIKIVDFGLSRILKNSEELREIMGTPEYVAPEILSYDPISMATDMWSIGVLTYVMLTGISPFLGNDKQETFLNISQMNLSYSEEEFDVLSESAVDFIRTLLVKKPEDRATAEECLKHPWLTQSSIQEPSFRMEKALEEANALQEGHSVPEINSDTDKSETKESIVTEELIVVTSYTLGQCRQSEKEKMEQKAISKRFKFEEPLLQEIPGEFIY
Summary of the method: (§1)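 Commercial selectivity screen of the test compound against a panel of 380 human recombinant protein kinases, run by an outside contractor at several compound concentrations to check whether its potency was specific for MK2.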

[2] = target: T2, 380 human recombinant protein kinases (Homo sapiens, UniProt Q8TDR2); conditions: CLIK1(h), read-out: Inhibition rate
T2 construct: purchased Eurofins (Celle Lévescault)
T2 sequence (Q8TDR2 whole entry): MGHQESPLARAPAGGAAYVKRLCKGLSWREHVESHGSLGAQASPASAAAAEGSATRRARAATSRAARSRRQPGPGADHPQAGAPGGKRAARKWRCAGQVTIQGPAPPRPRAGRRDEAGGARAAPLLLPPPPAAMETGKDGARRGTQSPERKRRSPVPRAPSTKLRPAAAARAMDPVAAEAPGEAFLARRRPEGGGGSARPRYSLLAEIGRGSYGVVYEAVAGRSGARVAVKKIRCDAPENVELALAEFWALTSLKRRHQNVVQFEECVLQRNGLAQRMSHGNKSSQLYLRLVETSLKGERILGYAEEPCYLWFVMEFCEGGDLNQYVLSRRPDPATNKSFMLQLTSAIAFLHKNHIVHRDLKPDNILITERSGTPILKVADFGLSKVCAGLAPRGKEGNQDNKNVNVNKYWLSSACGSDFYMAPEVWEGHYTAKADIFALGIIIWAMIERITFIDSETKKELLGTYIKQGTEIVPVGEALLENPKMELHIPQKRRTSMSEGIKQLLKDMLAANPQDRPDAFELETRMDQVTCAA
Summary of the method: as §1

[3] = target: T3, 380 human recombinant protein kinases (Homo sapiens, UniProt Q15831); conditions: LKB1(h), read-out: Inhibition rate
T3 construct: purchased Eurofins (Celle Lévescault)
T3 sequence (Q15831 1-433): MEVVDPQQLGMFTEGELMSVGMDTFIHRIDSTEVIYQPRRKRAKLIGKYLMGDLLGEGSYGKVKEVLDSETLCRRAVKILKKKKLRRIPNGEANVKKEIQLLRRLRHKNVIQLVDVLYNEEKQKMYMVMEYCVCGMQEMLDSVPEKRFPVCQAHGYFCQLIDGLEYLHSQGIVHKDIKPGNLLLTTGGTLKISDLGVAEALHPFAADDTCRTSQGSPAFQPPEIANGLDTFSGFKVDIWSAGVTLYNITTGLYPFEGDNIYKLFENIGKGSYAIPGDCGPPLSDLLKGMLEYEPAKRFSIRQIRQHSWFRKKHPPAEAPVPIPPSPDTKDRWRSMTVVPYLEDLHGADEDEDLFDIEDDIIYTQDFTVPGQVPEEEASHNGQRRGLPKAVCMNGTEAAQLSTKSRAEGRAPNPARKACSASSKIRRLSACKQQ
Summary of the method: as §1

[4] = target: T4, 380 human recombinant protein kinases (Homo sapiens, UniProt P31751); conditions: PKBβ(h), read-out: Inhibition rate
T4 construct: purchased Eurofins (Celle Lévescault)
T4 sequence (P31751 whole entry): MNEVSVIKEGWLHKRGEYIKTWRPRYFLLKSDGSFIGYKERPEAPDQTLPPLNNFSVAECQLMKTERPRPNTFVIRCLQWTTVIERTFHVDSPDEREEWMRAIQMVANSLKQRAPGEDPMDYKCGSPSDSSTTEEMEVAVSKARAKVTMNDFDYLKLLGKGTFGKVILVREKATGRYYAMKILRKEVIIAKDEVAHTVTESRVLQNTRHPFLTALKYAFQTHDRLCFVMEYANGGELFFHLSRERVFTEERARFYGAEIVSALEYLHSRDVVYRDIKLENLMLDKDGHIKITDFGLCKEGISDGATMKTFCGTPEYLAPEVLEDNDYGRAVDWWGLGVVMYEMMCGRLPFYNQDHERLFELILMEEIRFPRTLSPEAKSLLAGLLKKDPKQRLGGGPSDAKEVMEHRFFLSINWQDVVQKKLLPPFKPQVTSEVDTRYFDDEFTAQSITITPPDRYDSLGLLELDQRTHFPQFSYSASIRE
Summary of the method: as §1

[5] = target: T5, 380 human recombinant protein kinases (Homo sapiens, UniProt P15735); conditions: PhKγ2(h), read-out: Inhibition rate
T5 construct: purchased Eurofins (Celle Lévescault)
T5 sequence (P15735 1-406): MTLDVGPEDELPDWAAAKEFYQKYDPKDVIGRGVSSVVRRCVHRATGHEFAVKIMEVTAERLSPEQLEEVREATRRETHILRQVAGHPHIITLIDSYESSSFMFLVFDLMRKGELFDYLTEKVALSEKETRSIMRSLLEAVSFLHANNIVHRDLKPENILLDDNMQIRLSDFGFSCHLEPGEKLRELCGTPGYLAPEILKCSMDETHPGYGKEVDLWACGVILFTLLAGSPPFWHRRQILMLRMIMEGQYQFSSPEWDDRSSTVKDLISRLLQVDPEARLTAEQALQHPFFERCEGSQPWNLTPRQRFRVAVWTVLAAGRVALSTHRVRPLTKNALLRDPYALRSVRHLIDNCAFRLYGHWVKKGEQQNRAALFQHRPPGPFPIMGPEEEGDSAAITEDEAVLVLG
Summary of the method: as §1

[6] = test system: 380 human recombinant protein kinases
Summary of the method: as §1

[7] = target: T6, 380 human recombinant protein kinases (Homo sapiens, UniProt Q92918); conditions: HPK1(h), read-out: Inhibition rate
T6 construct: purchased Eurofins (Celle Lévescault)
T6 sequence (Q92918 whole entry): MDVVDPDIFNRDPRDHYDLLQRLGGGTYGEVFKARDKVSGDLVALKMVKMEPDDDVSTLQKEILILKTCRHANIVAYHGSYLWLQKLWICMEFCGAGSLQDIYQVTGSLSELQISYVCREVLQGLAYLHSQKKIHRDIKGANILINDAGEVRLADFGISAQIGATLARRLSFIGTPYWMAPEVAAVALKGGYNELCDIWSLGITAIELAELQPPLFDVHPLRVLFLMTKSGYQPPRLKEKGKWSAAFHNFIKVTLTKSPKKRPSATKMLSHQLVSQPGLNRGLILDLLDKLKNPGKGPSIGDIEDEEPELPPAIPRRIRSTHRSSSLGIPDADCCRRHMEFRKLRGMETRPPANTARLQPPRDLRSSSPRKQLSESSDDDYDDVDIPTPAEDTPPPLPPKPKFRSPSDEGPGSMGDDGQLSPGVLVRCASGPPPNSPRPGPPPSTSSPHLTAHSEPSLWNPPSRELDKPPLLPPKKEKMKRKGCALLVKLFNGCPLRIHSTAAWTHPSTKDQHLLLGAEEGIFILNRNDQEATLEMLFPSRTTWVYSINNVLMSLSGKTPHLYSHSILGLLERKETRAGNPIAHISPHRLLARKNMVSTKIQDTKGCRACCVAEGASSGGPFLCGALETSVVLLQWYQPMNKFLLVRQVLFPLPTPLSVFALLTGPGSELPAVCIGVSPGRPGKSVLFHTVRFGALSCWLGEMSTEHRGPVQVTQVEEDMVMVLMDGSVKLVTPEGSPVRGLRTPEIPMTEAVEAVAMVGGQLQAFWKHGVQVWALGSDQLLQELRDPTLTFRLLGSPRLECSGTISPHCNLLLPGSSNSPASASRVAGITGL
Summary of the method: as §1

For `C=CC(=O)Nc1cc(-c2cc(-c3cc4c([nH]3)CCNC4=O)ccn2)ccc1OC(F)(F)F` [compound 11], the inhibition at 0.01 µM ([1]; 10 nM) was 13%, the inhibition at 0.1 µM ([1]; 100 nM) was 41% and the inhibition at 1 µM ([1]; 1000 nM) was 82%. For the same molecule, the inhibition at 0.01 µM ([2]; 10 nM) was 5%, the inhibition at 0.1 µM ([2]; 100 nM) was 33% and the inhibition at 1 µM ([2]; 1000 nM) was 65%. The inhibition at 0.01 µM ([3]; 10 nM) was -5%, the inhibition at 0.1 µM ([3]; 100 nM) was -3% and the inhibition at 1 µM ([3]; 1000 nM) was -6%. The inhibition at 0.01 µM ([4]; 10 nM) was 1%, the inhibition at 0.1 µM ([4]; 100 nM) was 3% and the inhibition at 1 µM ([4]; 1000 nM) was 0%. For the same molecule, the inhibition at 0.01 µM ([5]; 10 nM) was 8%, the inhibition at 0.1 µM ([5]; 100 nM) was 1% and the inhibition at 1 µM ([5]; 1000 nM) was 2%. For the same molecule, the “inhibitory rate on the other 380 kinases tested” value ([6]; 10 nM, all 380 kinases) was “less than 50%”, the “selectivity for MK2 over the other tested kinases” value ([6]; 91.8% of total tested kinases) was “more than 434 fold” and the Inhibition rate ([6]; ACTR2(h), 10 nM) was -9%. For the same molecule, the Inhibition rate ([6]; ACTR2(h), 100 nM) was -11%, the Inhibition rate ([6]; ACTR2(h), 1000 nM) was -8% and the Inhibition rate ([6]; MAPK1(h), 10 nM) was -1%. It also gave an Inhibition rate ([6]; MAPK1(h), 100 nM) of 0%, an Inhibition rate ([6]; MAPK1(h), 1000 nM) of 7% and an Inhibition rate ([6]; PKCβII(h), 10 nM) of -1%. For the same molecule, the Inhibition rate ([6]; PKCβII(h), 100 nM) was 4%, the Inhibition rate ([6]; PKCβII(h), 1000 nM) was 6% and the Inhibition rate ([6]; PKG1β(h), 10 nM) was 7%. For the same molecule, the Inhibition rate ([6]; PKG1β(h), 100 nM) was 10%, the Inhibition rate ([6]; PKG1β(h), 1000 nM) was 5% and the inhibition at 0.01 µM ([7]; 10 nM) was -8%. It also gave an inhibition at 0.1 µM ([7]; 100 nM) of -15% and an inhibition at 1 µM ([7]; 1000 nM) of 1%.
